Source: patent US20220296635A1 (Board of Regents, The University of Texas System, priority 2013, published 2022)

Experiments:
[1] = tested on: Bone marrow stromal cells (BMSCs); experiment: Calcium nodule formation in BMSC cultures (Von Kossa staining); assay type: cell-based, Sprague-Dawley rats; conditions: 12 days of osteogenic induction
Procedure: Methods of promoting bone growth according to some embodiments described herein were carried out as follows. Bone marrow stromal cells (BMSCs) derived from 6 week old male Sprague-Dawley rats were cultured in growth medium containing Minimum Essential Medium Alpha (αMEM) supplemented with 10% (V/V) fetal bovine serum (FBS), 0.25 μg/mL Fungizone, and 1% (V/V) penicillin and streptomycin in 6-well plates at a density of 2×10^5 cells/well (Day 0). […] After 12 days of osteogenic induction, the BMSCs cultures were stained with Von Kossa staining and imaged by optical microscopy. The numbers of calcium nodules per well were counted in the inverted microscope. The total area of the calcium nodules was also calculated. FIG. 6A illustrates microscope images of Von Kossa staining. FIG. 6B illustrates the number of observed calcium nodules. FIG. 6C illustrates the total area of the calcium nodules.

osteopontin (OPN) = experiment: Osteopontin protein level in hMSCs by Western Blot; assay type: cell-based, Human; conditions: 20 μM, 200 μM or 2000 μM citrate; 7 days and 14 days
Procedure: (§1) Methods of promoting bone growth according to some embodiments described herein were carried out as follows. Human mesenchymal stem cells (hMSCs) (Lonza Walkersville Inc., USA) were cultured in Dulbecco's Modified Eagle's Medium (DMEM) supplemented with 10% FBS and 1% penicillin and streptomycin. For differentiation, hMSCs were switched to an osteogenic medium (OGM) comprising the previous DMEM-based medium further supplemented with 10^−7 M β-glycerophosphate and 50 μM ascorbic acid-2-phosphate. The hMSC cells were seeded at a density of 10^4 cells/mL after 80-90% confluence in 96-well plates. […] Media were changed every other day.

[2] = tested on: Human mesenchymal stem cells (hMSCs); experiment: Calcium deposit formation in differentiated hMSC cultures (Von Kossa staining); assay type: cell-based; conditions: 20 μM citrate, osteogenic medium; 7, 14 and 21 days
Procedure: as §1, with “For differentiation, hMSCs were switched to an osteogenic medium (OGM) comprising the previous DMEM-based medium further supplemented with 10^−7 M β-glycerophosphate and 50 μM ascorbic acid-2-phosphate.” left out

[3] = tested on: osteosarcoma cells (Saos-2 cells); experiment: Saos-2 cell proliferation (MTT assay); assay type: cell-based
Procedure: Methods of inhibiting cancer growth according to some embodiments described herein were carried out as follows. […] Human mesenchymal stem cells (hMSCs) (Lonza Walkersville Inc., USA) were cultured in growth medium composed of Dulbecco's Modified Eagle's Medium (DMEM) supplemented with 10% FBS and 1% penicillin/streptomycin and then seeded in a 96-well plates at a density of 10^4 cells/mL after 80-90% confluence. […] The hMSCs were incubated with the citrate-supplemented media at 37° C. with 5% CO2. Media were changed every other day. […] After incubating at 37° C. for 4 hrs in MTT working solution, the hMSCs in the 96-well plates were submerged in dimethylsulfoxide (DMSO) for 15 minutes on an orbital shaker under dark conditions. The 96-well plates were then placed on a Micro-plate Reader to obtain absorbance values at 595 nm. In addition, live/dead staining was carried out at pre-determined time points (1 day, 4 days, and 7 days). The hMSCs were stained with live/dead working solution (Life Technologies Inc., USA) for 30 minutes and then observed under a Nikon Inverted Fluorescence Microscope to determine cell viability.
The hMSCs were cultured as described above. The Saos-2 cells were cultured in McCoy's 5A medium (Lonza Walkersville Inc., USA) supplemented with 10% FBS and 1% penicillin/streptomycin. […]

SMILES: O=C(O)CC(O)(CC(=O)O)C(=O)O [citrate, citric acid]
- number and size of calcium nodules ([1]; citrate concentration of 20 μM): induced the highest number of calcium nodules
- calcium nodule formation ([1]; citrate-supplemented osteogenic media (2 μM to 5 mM citric acid)): promoted calcium module formation in a dose-dependent manner
- OPN expression (osteopontin (OPN)): closely associated in a dose-dependent relationship
- calcium deposit formation [2]: able to promote calcium deposit formation
- Saos-2 cell proliferation ([3]; concentrations above 800 μM, 1 day and 4 days): inhibit Saos-2 cell proliferation
- Saos-2 cell killing ([3]; concentrations above 2000 μM): most Saos-2 cells were killed
